Where “and” joins values, the source holds several entries; their conditions need not be identical. Identical values can stand only once. Toxic doses and inconclusive results are not listed.

The subject of this experiment is P388 leukemia ip, CD2F1 mice, survival T/C. Briefly: NCI In Vivo Anticancer Drug Screen. Data for tumor model P388 Leukemia (intraperitoneal) in CD2F1 (CDF1) mice. Particulars: endpoint: median survival time, higher = longer survival. Put shortly: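 Mice carrying the transplanted tumor received test compound or vehicle. Survival was recorded in each group, and the value is the treated-group measurement divided by that of the vehicle-treated control group.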

Setting [1] is: dose: 100.0 mg/kg/injection, schedule: Q04DX002 (ip), vehicle: saline with Tween-80.
[2] abbreviates: dose: 200.0 mg/kg/injection, schedule: Q04DX002 (ip), vehicle: saline with Tween-80.
Where [3] appears, read: dose: 50.0 mg/kg/injection, schedule: Q01DX009 (ip), vehicle: saline with Tween-80.
[4] abbreviates: dose: 25.0 mg/kg/injection, schedule: Q04DX003 (ip), vehicle: saline.
Where [5] appears, read: dose: 50.0 mg/kg/injection, schedule: Q04DX003 (ip), vehicle: saline.
Where [6] appears, read: dose: 50.0 mg/kg/injection, schedule: Q01DX005 (ip), vehicle: saline with Tween-80.
Where [7] appears, read: dose: 100.0 mg/kg/injection, schedule: Q01DX005 (ip), vehicle: saline with Tween-80.
Where [8] appears, read: dose: 200.0 mg/kg/injection, schedule: Q01DX005 (ip), vehicle: saline with Tween-80.
The mark [9] stands for this setting: dose: 12.5 mg/kg/injection, schedule: Q01DX009 (ip), vehicle: saline with Tween-80.

`Clc1c(-c2ccccc2)oc2nc3ccccc3nc12`: the T/C (dose: 60.0 mg/kg/injection, schedule: Q01DX005 (ip), vehicle: saline with Tween-80) is 116 % of control; the T/C (dose: 120.0 mg/kg/injection, schedule: Q01DX005 (ip), vehicle: saline with Tween-80) was 110 % of control; the T/C (dose: 240.0 mg/kg/injection, schedule: Q01DX005 (ip), vehicle: saline with Tween-80) was 111 % of control.
Take `CCOC(=O)c1cc(-c2cc(-c3ccccn3)nnc2-c2ccccn2)c(=O)n(C)c1C`: the T/C under setting [1] is 102 % of control; the T/C under setting [2] was 97 % of control; the T/C (dose: 400.0 mg/kg/injection, schedule: Q04DX002 (ip), vehicle: saline with Tween-80) is 98 % of control.
Consider `Cc1ccc(N=Nc2c(-c3cccs3)nn(C(=S)S)c2C(F)(F)F)cc1`, for which the T/C was 92 % of control (dose: 50.0 mg/kg/injection, schedule: Q01DX005 (ip), vehicle: Klucel (hydroxypropylcellulose) (HPC)); 92 % of control (dose: 100.0 mg/kg/injection, schedule: Q01DX005 (ip), vehicle: Klucel (hydroxypropylcellulose) (HPC)); 87 % of control (dose: 200.0 mg/kg/injection, schedule: Q01DX005 (ip), vehicle: Klucel (hydroxypropylcellulose) (HPC)).
In the case of `O=c1c2[nH]c3ccccc3sc=2c(=O)c2ccccc12`, the T/C runs as follows: under setting [3], 90 % of control; (dose: 100.0 mg/kg/injection, schedule: Q01DX009 (ip), vehicle: saline with Tween-80) 91 % of control; (dose: 200.0 mg/kg/injection, schedule: Q01DX009 (ip), vehicle: saline with Tween-80) 106 % of control.
In the case of `C=CCOc1cc2c(cc1Cc1cc(OC)c(OC)c(OC)c1)OCO2`, the T/C is 100 % of control (dose: 60.0 mg/kg/injection, schedule: Q01DX005 (ip), vehicle: saline) and 99 % of control (dose: 120.0 mg/kg/injection, schedule: Q01DX005 (ip), vehicle: saline).
For `O=C(CCN1CC1)OCCOC(=O)CCN1CC1`, the T/C was 159 % of control under setting [4]; 150 % of control (dose: 50.0 mg/kg/injection, schedule: Q04DX003 (ip), vehicle: saline with Tween-80); 181 % of control under setting [5]; 166 % of control (dose: 75.0 mg/kg/injection, schedule: Q04DX003 (ip), vehicle: saline with Tween-80).
For `COc1ccc(C)c2c(NCCCCCCCCNc3c4ccccc4nc4c(OC)ccc(C)c34)c3ccccc3nc12`, the T/C by setting is: (dose: 2.5 mg/kg/injection, schedule: Q01DX009 (ip), vehicle: water) 100 % of control; (dose: 5.0 mg/kg/injection, schedule: Q01DX009 (ip), vehicle: water) 113 % of control; (dose: 10.0 mg/kg/injection, schedule: Q01DX009 (ip), vehicle: water) 105 % of control.
Take `COc1ccc2c(c1)CN(CCc1ccccc1)CO2`: the T/C under setting [6] was 101 % of control, the T/C under setting [7] is 101 % of control and the T/C under setting [8] is 97 % of control.
In the case of `Fc1cccc(N=Nc2c(-c3ccccc3)nn(C(=S)S)c2-c2ccccc2)c1`, the T/C reads like this: under setting [6], 104 % of control; under setting [7], 101 % of control; under setting [8], 106 % of control.
As for `CC([CH2][Sn]([CH3])([Cl])[c]1ccccc1)c1ccccc1` (stereo not drawn), the T/C (dose: 12.5 mg/kg/injection, schedule: Q04DX003 (ip), vehicle: saline) is 98 % of control; the T/C under setting [4] was 103 % of control; the T/C under setting [5] was 94 % of control; the T/C (dose: 100.0 mg/kg/injection, schedule: Q04DX003 (ip), vehicle: saline with Tween-80) is 98 % of control.
As for `C=C1C(=O)OC2/C=C(/CO)CC/C=C(/C=O)CC(O)C12` (stereo not drawn), the T/C (dose: 1.89 mg/kg/injection, schedule: Q01DX005 (ip), vehicle: saline + Tween-80 + alcohol) was 101 % of control; the T/C (dose: 3.75 mg/kg/injection, schedule: Q01DX005 (ip), vehicle: saline + Tween-80 + alcohol) was 100 % of control; the T/C (dose: 7.5 mg/kg/injection, schedule: Q01DX005 (ip), vehicle: saline + Tween-80 + alcohol) was 101 % of control; the T/C (dose: 15.0 mg/kg/injection, schedule: Q01DX005 (ip), vehicle: saline + Tween-80 + alcohol) was 99 % of control.
For the compound `COC(=O)c1ccc(OP(=O)(N(C)C)N(C)C)cc1`, the T/C (dose: 3.12 mg/kg/injection, schedule: Q01DX009 (ip), vehicle: saline with Tween-80) was 98 % of control and 97 % of control; the T/C (dose: 6.25 mg/kg/injection, schedule: Q01DX009 (ip), vehicle: saline with Tween-80) was 96 % of control; the T/C under setting [9] is 104 % of control and 96 % of control.
For `COc1cc(C2Oc3c(OC)cc(CC4C(=O)OCC4Cc4ccc(OC)c(OC)c4)cc3C2CO)ccc1O` (stereo not drawn), the T/C by setting is: (dose: 2.5 mg/kg/injection, schedule: Q01DX009 (ip), vehicle: saline with Tween-80) 104 % of control; (dose: 5.0 mg/kg/injection, schedule: Q01DX009 (ip), vehicle: saline with Tween-80) 102 % of control; (dose: 10.0 mg/kg/injection, schedule: Q01DX009 (ip), vehicle: saline with Tween-80) 101 % of control; (dose: 20.0 mg/kg/injection, schedule: Q01DX009 (ip), vehicle: saline with Tween-80) 101 % of control.
Regarding `Nc1nc(-c2c[nH]c(=O)[nH]c2=O)cs1`, the T/C is, setting by setting: under setting [9], 107 % of control; (dose: 25.0 mg/kg/injection, schedule: Q01DX009 (ip), vehicle: saline with Tween-80) 107 % of control; under setting [3], 104 % of control.
Take `O=C(O)C1CSC(c2coc3ccccc3c2=O)N1` (stereo not drawn): the T/C was 108 % of control (dose: 50.0 mg/kg/injection, schedule: Q01DX009 (ip), vehicle: suspension in saline); 117 % of control (dose: 100.0 mg/kg/injection, schedule: Q01DX009 (ip), vehicle: suspension in saline); 108 % of control (dose: 200.0 mg/kg/injection, schedule: Q01DX009 (ip), vehicle: suspension in saline).
Turning to `CC(=O)n1c2ccccc2c2c(C)c3cnccc3c(C)c21`, the T/C is 114 % of control (dose: 12.5 mg/kg/injection, schedule: Q04DX002 (ip), vehicle: saline with Tween-80); 124 % of control (dose: 25.0 mg/kg/injection, schedule: Q04DX002 (ip), vehicle: saline with Tween-80); 152 % of control (dose: 50.0 mg/kg/injection, schedule: Q04DX002 (ip), vehicle: saline with Tween-80); 171 % of control under setting [1]; 196 % of control under setting [2].
Turning to `CC(=O)NCCn1nc(-c2ccc(Cl)cc2)c(-c2ccc(Cl)cc2)c(C(C)=O)c1=O`, the T/C is, setting by setting: (dose: 6.25 mg/kg/injection, schedule: Q01DX005 (ip), vehicle: saline with Tween-80) 103 % of control; (dose: 12.5 mg/kg/injection, schedule: Q01DX005 (ip), vehicle: saline with Tween-80) 103 % of control.
As for `COc1ccc2c(c1O)-c1cccc3c1[C@@H](C2)N(CCCl)CC3`, the T/C (dose: 1.0 mg/kg/injection, schedule: Q01DX009 (ip), vehicle: Klucel (hydroxypropylcellulose) (HPC)) is 101 % of control and 105 % of control; the T/C (dose: 2.0 mg/kg/injection, schedule: Q01DX009 (ip), vehicle: Klucel (hydroxypropylcellulose) (HPC)) is 99 % of control and 101 % of control; the T/C (dose: 4.0 mg/kg/injection, schedule: Q01DX009 (ip), vehicle: Klucel (hydroxypropylcellulose) (HPC)) is 106 % of control and 113 % of control; the T/C (dose: 4.0 mg/kg/injection, schedule: Q01DX009 (ip), vehicle: saline) is 151 % of control; the T/C (dose: 6.25 mg/kg/injection, schedule: Q04DX003 (ip), vehicle: other) is 104 % of control and 118 % of control; the T/C (dose: 8.0 mg/kg/injection, schedule: Q01DX009 (ip), vehicle: Klucel (hydroxypropylcellulose) (HPC)) was 106 % of control. The T/C is, setting by setting: (dose: 8.0 mg/kg/injection, schedule: Q01DX009 (ip), vehicle: saline) 114 % of control and 120 % of control; (dose: 12.5 mg/kg/injection, schedule: Q04DX003 (ip), vehicle: other) 90 % of control; (dose: 25.0 mg/kg/injection, schedule: Q04DX003 (ip), vehicle: other) 116 % of control.
Regarding `CC[N+](CC)=c1ccc2nc3c(cc(Nc4ccccc4)c4ccccc43)oc-2c1.[Cl][Zn][Cl]`, the T/C is, setting by setting: (dose: 60.0 mg/kg/injection, schedule: Q01DX005 (ip), vehicle: Klucel (hydroxypropylcellulose) (HPC)) 98 % of control; (dose: 120.0 mg/kg/injection, schedule: Q01DX005 (ip), vehicle: Klucel (hydroxypropylcellulose) (HPC)) 107 % of control.
For the compound `C/C(=N\N=C(/[Se])N1CCCCC1C)c1ccccn1` (stereo not drawn), the T/C is, setting by setting: (dose: 12.5 mg/kg/injection, schedule: Q04DX003 (ip), vehicle: Klucel (hydroxypropylcellulose) (HPC)) 101 % of control; (dose: 25.0 mg/kg/injection, schedule: Q04DX003 (ip), vehicle: Klucel (hydroxypropylcellulose) (HPC)) 114 % of control.

(Values after PubChem BioAssay AID330 (DTP/NCI, 2004).)
